Results taken from EP1097716A1, “Dietary anti-adiposity food supplements and drugs based on thyrotropin-releasing hormone (TRH)” (Chronolife Inc., priority 1999, dated 2001).

Tests used:
[1] = Toxicity of increasing doses in the drinking water
[2] = tested on: obese, anterior hypothalamic area (AHA)-lesioned mice; assay: 20-day intraperitoneal treatment of obese AHA-lesioned mice, body weight (Table 3); assay type: in vivo, C57BL/6 male mice; settings: N=6, Mean ± SD; for Body weight (g): p<0.05 vs before treatment
Description: C57BL/6 male mice aged 7 months (AHA-lesioned at 2 months of age to induce obesity), were injected intraperitoneally for 20 days at 6 pm (evening) with 0.5 ml volume containing 10 µg TRH-tartrate in bidistilled water. Controls were injected with the same amount of diluent.

[3] = tested on: anterior hypothalamic area (AHA)-lesioned obese mice; assay: 48-day intraperitoneal treatment of AHA-lesioned obese mice, body weight (Table 5); assay type: in vivo, C57BL/6 female mice; settings: N=4, Mean ± SD
Description: C57BL/6 female mice aged 8 months (AHA-lesioned at 2 months of age to induce obesity), were injected intraperitoneally for 48 days at 6 pm (evening) with 0.5 ml volume containing 10 µg TRH-tartrate in bidistilled water. Controls were injected with the same amount of diluent.

[4] = 20-day intraperitoneal treatment, blood levels of T3, T4 and TSH by radioimmunoassay in serum (Table 7); assay type: in vivo, C57BL/6 male mice; settings: for T3 / T4 / TSH (µU/mL): serum, Mean ± SD
Description: This is shown by Table 7 hereafter which report the results of assays which were ran under the following conditions.
C57BL/6 male mice aged 9 months, were injected intraperitonealy for 20 days at 6 p.m. (evening) or at 8 a.m. (morning) with 0.5 ml volumes containing either 10 µg or 100 µg of TRH in bidistilled water. Controls were injected with the same amount of diluent. The mice were bled from the retroorbital venus plexus under rapid acute ether anaesthesia at 10 a.m. T3, T4 and TSH were measured by radioimmunoassay in the serum of individual mice. TABLE 7: […]

[5] = tested on: old female mice; assay: Chronic oral administration in drinking water, aging-related adiposity, body weight (Table 8); assay type: in vivo, BALB/cJ X C57BL/6 F1 female mice; settings: n=15, Mean ± SD
Text: With other words, progressive alteration of pineal-hypothalamic-pituitary-peripheral endocrine glands function in the course of aging leads to the most typical appearance of decreased tolerance to glucose (hyperglycemia), increased levels of lipids, in particular triglycerides and cholesterol (hyperlipidemia) and progressive accumulation of fat, which is not obesity but the most common expression of hormonal derangements. TRH taken chronically will maintain normal body weight in normal aging mice, while the normal controls put on fat and weight.
The results reported in Table 8 clearly support the presumption that TRH is also capable of preventing onset of aging-related adiposity in humans.

[6] = 2 months treatment, blood levels of cholesterol and triglycerides in old mice (Table 9); assay type: in vivo, BALB/cJ female mice; settings: 2 months treatment started in 20-month-old female mice, n = 10, dosages as for Table 7
Text: Evidence that the lipid related compounds whose proportions in the blood circulation of old mice have a cause different from those observed in young mice treated with TRH seems further indicated by the fact that the weight of 16 month-old female mice, thus older mice which tend to accumulate age-related adiposity, can also be controlled and even reduced by the adsorption of TRH (see table 8). Indeed the contents in lipid-related compounds in the blood circulation of older mice (20 month-old mice) treated with TRH remain substantially unaltered, as evidenced by the results shown in Table 9 hereafter. The dosages of TRH were the same as in the assay reported in relation to Table 7.

[7] = aging mice (18 month-old mice) compared with young, e.g. three month-old mice; cited from earlier work
[8] = TRH evening (6 p.m.) 10 µg i.p. for 20 days
[9] = TRH evening (6 p.m.) 100 µg i.p. for 20 days
[10] = TRH morning (8 a.m.) 10 µg i.p. for 20 days
[11] = TRH morning (8 a.m.) 100 µg i.p. for 20 days

Compound: COc1ccc2[nH]cc(CCNC(C)=O)c2c1 [melatonin]
- toxicity [1]: not toxic

Compound: (pyro)Glu-His-Pro NH2 [TRH]
- Body weight ([2]; After 10 days of treatment, 10 µg TRH-tartrate i.p. daily at 6 pm): 33.7 ± 4.2 g
- Body weight (g) ([2]; After 20 days of treatment, 10 µg TRH-tartrate i.p. daily at 6 pm): 32.0 ± 3.6^∗ g
- Body weight (g) ([2]; After withdrawal period of 5 days following 20-day treatment): 31.1 ± 3.4^∗ g
- Body weight ([2]; After withdrawal period of 60 days following 20-day treatment): 38.3 ± 5.9 g
- Body weight ([2]; Before treatment, AHA-lesioned male mice aged 7 months): 39.0 ± 6.2 g
- Body weight ([3]; After 27 days of treatment, 10 µg TRH-tartrate i.p. daily at 6 pm): 39.2 ± 7.2 g
- Body weight (g) ([3]; After 48 days of treatment, 10 µg TRH-tartrate i.p. daily at 6 pm, p<0.05 vs before treatment): 32.6 ± 4.4^∗ g
- Body weight ([3]; Before treatment, AHA-lesioned female mice aged 8 months): 42.2 ± 6.4 g
- T3 [4, 8]: 0.82 ± 0.08 nmol/L
- T4 [4, 8]: 65.7 ± 4.2 nmol/L
- TSH (µU/mL) [4, 8]: 0.005 ± 0.004 µU/mL
- T3 [4, 9]: 0.91 ± 0.02 nmol/L
- T4 [4, 9]: 68.7 ± 13.1 nmol/L
- TSH (µU/mL) [4, 9]: 0.004 ± 0.005 µU/mL
- T3 [4, 10]: 1.03 ± 0.07 nmol/L
- T4 [4, 10]: 82.0 ± 1.9 nmol/L
- TSH (µU/mL) [4, 10]: 0.009 ± 0.006 µU/mL
- T3 [4, 11]: 0.84 ± 0.02 nmol/L
- T4 [4, 11]: 74.9 ± 13.3 nmol/L
- TSH (µU/mL) [4, 11]: 0.007 ± 0.005 µU/mL
- acute toxicity ([4]; injected at huge dosages (up to 100 µg i.p. for 20 days)): lack of acute toxicity
- Body weight (g) before treatment ([5]; 16 month-old female mice): 33.1 ± 3.2 (15) g
- Body weight (g) after treatment ([5]; TRH-tartrate in the drinking water (100µg/ml) for 5 months, started at 16 months of age): 33.8 ± 4.0 (15) g
- CHOLESTEROL [6]: 1.65 ± 0.29 mmol/L
- TRIGLYCERIDES [6]: 1.19 ± 0.46 mmol/L
- levels of cholesterol, triglycerids and phospholipids [7]: brought back to values currently observed in young mice
